Experimental data taken from ChEMBL document CHEMBL1130307, “Inhibition of Matrix Metalloproteinases: An examination of the S1 pocket” (Bioorg Med Chem Lett, 1997).

Legend:
Stromelysin-1 [1] = biological target: T1, Stromelysin-1 (Homo sapiens, UniProt P08254)
Matrilysin = biological target: T2, Matrilysin (Homo sapiens, UniProt P09237)
T2 sequence (P09237 whole entry): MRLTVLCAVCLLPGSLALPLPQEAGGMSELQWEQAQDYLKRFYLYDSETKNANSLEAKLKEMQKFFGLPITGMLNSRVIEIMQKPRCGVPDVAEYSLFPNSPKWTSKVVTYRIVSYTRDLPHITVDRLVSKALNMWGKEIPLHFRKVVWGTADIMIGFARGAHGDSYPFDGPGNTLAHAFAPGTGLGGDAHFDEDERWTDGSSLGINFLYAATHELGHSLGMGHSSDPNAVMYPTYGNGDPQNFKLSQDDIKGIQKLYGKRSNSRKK

Stromelysin-1 [2] = biological target: T1, Stromelysin-1; remark: listed apart in the source
Interstitial collagenase [3] = biological target: T3, Interstitial collagenase (Homo sapiens, UniProt P03956)
T3 sequence (P03956 whole entry): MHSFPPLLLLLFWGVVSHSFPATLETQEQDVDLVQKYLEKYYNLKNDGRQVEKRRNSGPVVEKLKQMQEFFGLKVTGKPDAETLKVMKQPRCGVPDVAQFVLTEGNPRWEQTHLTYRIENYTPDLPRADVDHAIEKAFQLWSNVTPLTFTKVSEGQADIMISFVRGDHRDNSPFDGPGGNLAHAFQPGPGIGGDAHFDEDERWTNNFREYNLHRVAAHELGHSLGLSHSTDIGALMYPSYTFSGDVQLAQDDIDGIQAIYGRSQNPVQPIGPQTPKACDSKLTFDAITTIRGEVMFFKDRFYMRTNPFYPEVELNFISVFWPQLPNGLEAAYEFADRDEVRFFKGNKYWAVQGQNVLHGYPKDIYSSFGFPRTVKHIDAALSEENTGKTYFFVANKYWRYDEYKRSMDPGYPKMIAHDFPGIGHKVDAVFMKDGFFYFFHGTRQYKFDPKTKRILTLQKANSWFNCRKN

Interstitial collagenase [4] = biological target: T3, Interstitial collagenase; remark: listed apart in the source

T1 sequence (P08254 whole entry): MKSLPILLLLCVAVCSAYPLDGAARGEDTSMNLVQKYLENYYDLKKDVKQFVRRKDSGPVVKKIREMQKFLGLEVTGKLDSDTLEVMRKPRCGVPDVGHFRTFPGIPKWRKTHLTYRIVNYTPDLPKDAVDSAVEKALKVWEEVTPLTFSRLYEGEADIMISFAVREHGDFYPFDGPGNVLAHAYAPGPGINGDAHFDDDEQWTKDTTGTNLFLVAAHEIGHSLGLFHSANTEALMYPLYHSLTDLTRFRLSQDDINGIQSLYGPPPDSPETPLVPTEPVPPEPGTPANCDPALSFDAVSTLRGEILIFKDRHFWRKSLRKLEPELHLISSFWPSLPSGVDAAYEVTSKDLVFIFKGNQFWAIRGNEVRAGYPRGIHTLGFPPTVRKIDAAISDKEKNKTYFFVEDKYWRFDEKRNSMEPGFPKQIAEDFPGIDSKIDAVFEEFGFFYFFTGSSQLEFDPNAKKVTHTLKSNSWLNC

| SMILES | IC50 (Stromelysin-1 [1]) | IC50 (Matrilysin) | IC50 (Interstitial collagenase [3]) | other results |
| --- | --- | --- | --- | --- |
| CCCCCCCCCCCCCCCC[C@H](CC(=O)NO)C(=O)N[C@@H](Cc1ccccc1)C(=O)NC | 300 nM | – | – | – |
| CNC(=O)[C@@H](NC(=O)[C@H](CCCCCCCCCCCCCCO)CC(=O)NO)C(C)(C)C | – | 500 nM | – | IC50 (Stromelysin-1 [2]): 50 nM |
| CCCCCCCCCCCCCCC[C@H](CC(=O)O)C(=O)N[C@H](C(=O)NC)C(C)(C)C | 7000 nM | – | – | – |
| CCCCCCCC[C@H](CC(=O)NO)C(=O)N[C@H](C(=O)NC)C(C)(C)C | – | 500 nM | – | IC50 (Stromelysin-1 [2]): 100 nM |
| CNC(=O)[C@H](Cc1ccccc1)NC(=O)[C@H](CCCc1ccccc1)CC(=O)NO | 500 nM | 10000 nM | 1000 nM | – |
| CCCCCCCC[C@H](CC(=O)NO)C(=O)N[C@@H](Cc1ccccc1)C(=O)NC | 450 nM | 1000 nM | 150 nM | – |
| CCCCCCCCCCCCC[C@H](CC(=O)NO)C(=O)N[C@H](C(=O)NC)C(C)(C)C | – | 2000 nM | – | IC50 (Stromelysin-1 [2]): 60 nM |
| CCCCCCCCC[C@H](CC(=O)O)C(=O)N[C@@H](Cc1ccccc1)C(=O)NC | 20000 nM | – | 7000 nM | – |
| CCCCCCCC[C@H](CC(=O)O)C(=O)N[C@H](C(=O)NC)C(C)(C)C | 30000 nM | 40000 nM | – | – |
| CCCCCCCC[C@H](CC(=O)O)C(=O)N[C@@H](Cc1ccccc1)C(=O)NC | 5000 nM | – | – | – |
| CCCCCCCCCCCCCC[C@H](CC(=O)O)C(=O)N[C@H](C(=O)NC)C(C)(C)C | 4000 nM | – | – | – |
| CCCCCC[C@H](CC(=O)NO)C(=O)N[C@@H](Cc1ccccc1)C(=O)NC | 80 nM | 2000 nM | 20 nM | – |
| CCCCCCCCCCCCC[C@H](CC(=O)O)C(=O)N[C@H](C(=O)NC)C(C)(C)C | 2000 nM | – | – | – |
| CCCCCCC[C@H](CC(=O)O)C(=O)N[C@@H](Cc1ccccc1)C(=O)NC | – | – | 7000 nM | – |
| CCCCCCCCCCCCCCCC[C@H](CC(=O)NO)C(=O)N[C@H](C(=O)NC)C(C)(C)C | – | – | – | IC50 (Stromelysin-1 [2]): 90 nM |
| CCCCCCCCC[C@H](CC(=O)NO)C(=O)N[C@H](C(=O)NC)C(C)(C)C | – | – | – | IC50 (Interstitial collagenase [4]): 375 nM |
| CCCCCCCCCCCCCCCC[C@H](CC(=O)O)C(=O)N[C@H](C(=O)NC)C(C)(C)C | – | – | – | IC50 (Stromelysin-1 [2]): 10000 nM |
| CCCCCCCCCCCC[C@H](CC(=O)NO)C(=O)N[C@@H](Cc1ccccc1)C(=O)NC | 40 nM | – | 50000 nM | – |
| CCCCCCCCCCCCCC[C@H](CC(=O)NO)C(=O)N[C@@H](Cc1ccccc1)C(=O)NC | 80 nM | – | – | – |
| CCCCCCCCCC[C@H](CC(=O)NO)C(=O)N[C@@H](Cc1ccccc1)C(=O)NC | 1000 nM | 2000 nM | 20 nM | – |
| CCCCCCCCCCCCCCCC[C@H](CC(=O)O)C(=O)N[C@@H](Cc1ccccc1)C(=O)NC | 50000 nM | – | – | – |
| CCCCCCCCCCCCCC[C@H](CC(=O)NO)C(=O)N[C@H](C(=O)NC)C(C)(C)C | – | – | – | IC50 (Stromelysin-1 [2]): 70 nM |
| CCCCCCCCC[C@H](CC(=O)NO)C(=O)N[C@@H](Cc1ccccc1)C(=O)NC | 30 nM | 3000 nM | 500 nM | – |
| CCCCCC[C@H](CC(=O)O)C(=O)N[C@@H](Cc1ccccc1)C(=O)NC | – | – | 20000 nM | – |
| CCCCCCC[C@H](CC(=O)NO)C(=O)N[C@@H](Cc1ccccc1)C(=O)NC | 40 nM | 2000 nM | 400 nM | – |
| CNC(=O)[C@H](Cc1ccccc1)NC(=O)[C@H](CC(C)C)[C@H](CSc1cccs1)C(=O)NO [BATIMASTAT] | – | 6 nM | – | – |
